Patent EP0031883A1, “Antimicrobial agent containing hydroxy butylimidazole derivatives” (BAYER AG, priority 1979, dated 1981)

System: Candida
Test: Antimicrobial in-vivo activity (oral) in mouse candidosis
Parameters: species or system Mäuse
Details: SPF-CF1 mice infected i.v. with 1 - 2 x 10^6 Candida cells; 50 - 100 mg/kg oral, one hour before and seven hours after infection; untreated controls about 5 % survival on day 5
Method: Mäuze vom Typ SPF-CF1 wurden intravenös mit 1 - 2 x 10^6 logaritmisch wachsenden Candida-Zellen, die in physiologischer Kochsalzlösung suspendiert waren, infiziert. Eine Stunde vor und sieben Stunden nach der Infektion werden die Tiere mit jeweils 50 - 100 mg/kg Körpergewicht der Präparate oral behandelt.
Urbehandelte Tiere starben 3 bis 6 Tage post infektionen. Die Überlebensrate am 5. Tag post infektionen betrug bei unbehandelten Kontrolltieren etwa 5 %.

Row | SMILES | Wirkung
1 | Clc1ccc(COC(Cn2ccnc2)c2ccc(Cl)cc2Cl)c(Cl)c1 (stereo not drawn) [Miconazol®, 1-[2,4-Dichlor-β-(2,4-dichlorbenzyloxy)-phenethyl]-imidazolnatrium] | keine Wirkung
2 | CC(C)(C)C(O)(Cn1ccnc1)c1ccc(-c2ccc(Cl)cc2)cc1 (centres unmarked) [Verbindung 2, 1-(4-p-Chlorbiphenylyl)-1-(tert.-butyl)-2-(imidazol-1-yl)-ethan-1-ol] | sehr gute Wirkung
